Target: T1, recombinant human VDR (hVDR, vitamin D receptor) (Homo sapiens, UniProt P11473)
T1 sequence (P11473 1-427): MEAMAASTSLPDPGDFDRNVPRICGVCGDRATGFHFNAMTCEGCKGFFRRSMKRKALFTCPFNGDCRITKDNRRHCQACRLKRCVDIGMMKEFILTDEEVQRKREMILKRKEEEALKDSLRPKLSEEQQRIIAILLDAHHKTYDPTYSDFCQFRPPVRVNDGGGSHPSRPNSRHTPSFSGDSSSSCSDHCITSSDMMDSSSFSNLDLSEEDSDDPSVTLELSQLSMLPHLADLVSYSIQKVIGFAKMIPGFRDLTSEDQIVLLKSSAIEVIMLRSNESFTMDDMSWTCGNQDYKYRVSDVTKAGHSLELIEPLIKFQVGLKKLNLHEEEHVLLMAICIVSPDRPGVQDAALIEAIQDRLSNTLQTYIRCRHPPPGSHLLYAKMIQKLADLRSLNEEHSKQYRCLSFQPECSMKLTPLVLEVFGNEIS
Test: fluorescence polarization competition assay (PolarScreen)
Assay type: binding
Settings: read-out: 6
Source text: fluorescence polarization competition assay (PolarScreen) on recombinant human VDR (hVDR, vitamin D receptor)

- IC50: 28 nM
SMILES: C=C1[C@H](O)C(C)=C(C#CC2=CCCc3c2cccc3[C@H](C)CCCC(C)(C)O)C[C@H]1O [compound 6, (1R,3S,1′′R)-5-[5′-(5′′-Hydroxy-1′′,5′′-dimethylhexyl)-3′,4′-dihydro-naphthalen-1′-ylethynyl]-4-methyl-2-methylene-cyclohex-4-ene-1,3-diol]
